One assay has as its target T1, WEE1 (Homo sapiens, UniProt P30291+Q96SW2).
T1 construct: C-terminal ePL-tagged (DiscoverX, Fremont, CA) full-length WEE1 expression construct; expressed in transfected cells; host or cells: LentiX-HEK293T (Invitrogen), lentiviral transduction; co-expressing GSPT1-GN (G576N, lacking the first 158 amino acids)
The experiment in a line: WEE1-ePL degradation assay (LentiX-WEE1-ePL-GSPT1-ND cells, InCELL Hunter luminescence, 4 h). The assay is classed as cell-based. The conditions noted are these: 293T-LentiX WEE1-ePL cells; for DC50: read-out: 293T-LentiX WEE1-ePL Degradation 4 hr (EC50). The essentials:
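Degradation EC50 was fitted by a four-parameter logistic model, with the upper limit taken from DMSO wells. Luminescence was read with InCELL Hunter reagent after 30 min at room temperature, following a 4 h, 37° C exposure of 2500 cells/well. Cells were LentiX-HEK293T carrying ePL-tagged full-length WEE1, dosed in 10 points (3-fold) from 1 or 10 uM.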

A further assay has as its system MKN45 cells. The experiment in a line: MKN45 cell proliferation assay (Cell-Titer-Glo, 120 h). The assay is classed as cell-based. The note with it: for EC50: Cell-Titer-Glo, read-out: MKN45 Cell Prolif. 120 hr (EC50); for MKN45 Cell Prolif. 120 hr (Ymin-Obs): minimal percent of DMSO control observed in the concentrations tested. The essentials: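 Cells seeded at 400/well onto pre-printed 10-point half-log dilutions (top 1 or 10 uM, 0.1% DMSO final), in triplicate, and grown 120 h at 37 C. Viability by Cell-Titer-Glo luminescence, blank-subtracted and normalised to DMSO; EC50 from four-parameter logistic fit, with observed minimal % of control recorded as Ymin-obs.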

[1] abbreviates: lower limit of the fit (Ymin=0 luciferase inhibitor, Ymax DMSO control).
The mark [2] stands for this setting: lower limit of the fit (0 = luciferase inhibitor, Ymax = DMSO control).
Setting [3] is: Homo sapiens, MKN-45, 120 h, growth inhibition.

The structures appear in SMILES notation. Read-outs that look alike come from different tables or passages of the source.

For `COC[C@@H]1CN(Cc2ccc3nc(N4CCN(C(C)=O)CC4)ccc3c2)C[C@H]1Oc1ccc2c(c1)CN([C@H]1CCC(=O)NC1=O)C2=O` [(3S)-3-(5-{[(3S,4S)-1-{[2-(4-acetylpiperazin-1-yl)quinolin-6-yl]methyl}-4-(methoxymethyl)pyrrolidin-3-yl]oxy}-1-oxo-2,3-dihydro-1H-isoindol-2-yl)piperidine-2,6-dione], the “293T-LentiX WEE1-ePL Degradation 4 hr (Ymin)” value on WEE1 (setting [1]) was determined as 27.27. Besides, the DC50 on WEE1 turned out to be 1.41 nM. For the same molecule, the EC50 (commonly the concentration giving half of the maximal effect) in the assay on MKN45 cells (Homo sapiens, MKN-45, 120 h) was found to be 1.12 nM. Moreover, the “MKN45 Cell Prolif. 120 hr (Ymin-Obs)” value in the assay with MKN45 cells came to 8.785.

Turning to `COC[C@@H]1CN(Cc2ccc3nc(N4CCOCC4)ncc3c2)C[C@H]1Oc1ccc2c(c1)CN([C@H]1CCC(=O)NC1=O)C2=O` [(3S)-3-(5-{[(3S,4S)-4-(methoxymethyl)-1-{[2-(morpholin-4-yl)quinazolin-6-yl]methyl}pyrrolidin-3-yl]oxy}-1-oxo-2,3-dihydro-1H-isoindol-2-yl)piperidine-2,6-dione], the “293T-LentiX WEE1-ePL Degradation 4 hr (Ymin)” value at WEE1 (setting [1]) amounted to 25.61. The DC50 at WEE1 was 5.4 nM. In the assay on MKN45 cells (Homo sapiens, MKN-45, 120 h), the EC50 was 1.64 nM. The “MKN45 Cell Prolif. 120 hr (Ymin-Obs)” value in the assay with MKN45 cells worked out at 8.574.

Turning to `COC[C@@H]1CN(Cc2ccc3nc(C4CCOCC4)ncc3c2)C[C@H]1Oc1ccc2c(c1)CN([C@H]1CCC(=O)NC1=O)C2=O` [(3S)-3-(5-{[(3S,4S)-4-(methoxymethyl)-1-{[2-(oxan-4-yl)quinazolin-6-yl]methyl}pyrrolidin-3-yl]oxy}-1-oxo-2,3-dihydro-1H-isoindol-2-yl)piperidine-2,6-dione], on WEE1 (setting [1]), the “293T-LentiX WEE1-ePL Degradation 4 hr (Ymin)” value was found to be 23.11. Also, the DC50 at WEE1 turned out to be 17.6 nM. In the assay on MKN45 cells (Homo sapiens, MKN-45, 120 h), the EC50 was determined as 4.9 nM. Further, the “MKN45 Cell Prolif. 120 hr (Ymin-Obs)” value in the assay on MKN45 cells was found to be 8.813.

In the case of `C[C@@H]1c2cc(O[C@H]3CCN(Cc4ccc5nc(N6CCOCC6)ncc5c4)C3)ccc2C(=O)N1[C@H]1CCC(=O)NC1=O` [(3S)-3-[(3R)-3-methyl-5-{[(3S)-1-{[2-(morpholin-4-yl)quinazolin-6-yl]methyl}pyrrolidin-3-yl]oxy}-1-oxo-2,3-dihydro-1H-isoindol-2-yl]piperidine-2,6-dione], at WEE1 (setting [1]), the “293T-LentiX WEE1-ePL Degradation 4 hr (Ymin)” value amounted to 40.43. The DC50 on WEE1 came out at 4.84 nM. In addition, the EC50 in the assay on MKN45 cells (Homo sapiens, MKN-45, 120 h) was 30.8 nM. The “MKN45 Cell Prolif. 120 hr (Ymin-Obs)” value with MKN45 cells is 36.11.

For `C[C@@H]1c2cc(O[C@H]3CCN(Cc4ccc5nc(C6CCOCC6)ccc5c4)C3)ccc2C(=O)N1[C@H]1CCC(=O)NC1=O` [(3S)-3-[(3R)-3-methyl-5-{[(3S)-1-{[2-(oxan-4-yl)quinolin-6-yl]methyl}pyrrolidin-3-yl]oxy}-1-oxo-2,3-dihydro-1H-isoindol-2-yl]piperidine-2,6-dione], at WEE1 (setting [1]), the “293T-LentiX WEE1-ePL Degradation 4 hr (Ymin)” value is reported as 42.32. Besides, the DC50 at WEE1 turned out to be 2.67 nM. For the same molecule, in the assay on MKN45 cells (Homo sapiens, MKN-45, 120 h), the EC50 stood at 17.8 nM. In the assay on MKN45 cells, the “MKN45 Cell Prolif. 120 hr (Ymin-Obs)” value amounted to 20.63.

Regarding `C[C@H]1c2cc(O[C@H]3CCN(Cc4ccc5nc(C6CCOCC6)ccc5c4)C3)ccc2C(=O)N1[C@H]1CCC(=O)NC1=O` [(3S)-3-[(3S)-3-methyl-5-{[(3S)-1-{[2-(oxan-4-yl)quinolin-6-yl]methyl}pyrrolidin-3-yl]oxy}-1-oxo-2,3-dihydro-1H-isoindol-2-yl]piperidine-2,6-dione], the “293T-LentiX WEE1-ePL Degradation 4 hr (Ymin)” value at WEE1 (setting [1]) was 49.25. Further, the DC50 at WEE1 amounted to 212 nM. Moreover, the EC50 in the assay on MKN45 cells (Homo sapiens, MKN-45, 120 h) stood at 374 nM. The “MKN45 Cell Prolif. 120 hr (Ymin-Obs)” value in the assay on MKN45 cells stood at 86.82.

For `CN(C(=O)C1CCOCC1)c1ccc2cc(CN3CC[C@H](Oc4ccc5c(c4)CN(C4CCC(=O)NC4=O)C5=O)C3)ccc2n1` (stereo partly drawn) [N-(6-{[(3S)-3-{[2-(2,6-dioxopiperidin-3-yl)-1-oxo-2,3-dihydro-1H-isoindol-5-yl]oxy}pyrrolidin-1-yl]methyl}quinolin-2-yl)-N-methyloxane-4-carboxamide], on WEE1 (setting [2]), the “293T-LentiX WEE1-ePL Degradation 4 hr (Ymin)” value came out at 32.5. The DC50 on WEE1 is 5.04 nM. The EC50 in the assay with MKN45 cells (setting [3]) was 3.35 nM. Besides, the “MKN45 Cell Prolif. 120 hr (Ymin-Obs)” value in the assay with MKN45 cells is 6.6.

Consider `O=C1CCC(N2Cc3cc(O[C@H]4CCN(Cc5ccc6nc(NC(=O)C7CCOCC7)ccc6c5)C4)ccc3C2=O)C(=O)N1` (stereo partly drawn) [N-(6-{[(3S)-3-{[2-(2,6-dioxopiperidin-3-yl)-1-oxo-2,3-dihydro-1H-isoindol-5-yl]oxy}pyrrolidin-1-yl]methyl}quinolin-2-yl)oxane-4-carboxamide], for which the “293T-LentiX WEE1-ePL Degradation 4 hr (Ymin)” value at WEE1 (setting [2]) amounted to 29. Moreover, the DC50 on WEE1 was 1.78 nM. Also, the 50% effective concentration (EC50) in the assay with MKN45 cells (setting [3]) turned out to be 2.03 nM. Also, the “MKN45 Cell Prolif. 120 hr (Ymin-Obs)” value in the assay on MKN45 cells turned out to be 5.73.

Turning to `CO[C@H]1C[C@@H](c2ccc3cc(CN4CC[C@H](Oc5ccc6c(c5)CN(C5CCC(=O)NC5=O)C6=O)C4)ccc3n2)C1` (stereo partly drawn) [drawing 577, 3-(1-oxo-5-{[(3S)-1-({2-[(1s,3s)-3-methoxycyclobutyl]quinolin-6-yl}methyl)pyrrolidin-3-yl]oxy}-2,3-dihydro-1H-isoindol-2-yl)piperidine-2,6-dione], the “293T-LentiX WEE1-ePL Degradation 4 hr (Ymin)” value on WEE1 (setting [2]) is recorded as 28.27. In addition, the DC50 at WEE1 was 2.09 nM. The concentration for a half-maximal effect (EC50) in the assay on MKN45 cells (setting [3]) was 2.67 nM. Moreover, the “MKN45 Cell Prolif. 120 hr (Ymin-Obs)” value with MKN45 cells was 7.76.

Take `CO[C@H]1C[C@H](c2ccc3cc(CN4CC[C@H](Oc5ccc6c(c5)CN(C5CCC(=O)NC5=O)C6=O)C4)ccc3n2)C1` (stereo partly drawn) [drawing 578, 3-(1-oxo-5-{[(3S)-1-({2-[(1r,3r)-3-methoxycyclobutyl]quinolin-6-yl}methyl)pyrrolidin-3-yl]oxy}-2,3-dihydro-1H-isoindol-2-yl)piperidine-2,6-dione]: the “293T-LentiX WEE1-ePL Degradation 4 hr (Ymin)” value on WEE1 (setting [2]) was determined as 27.12. For the same molecule, at WEE1, the DC50 turned out to be 3.61 nM. Besides, the EC50 in the assay on MKN45 cells (setting [3]) amounted to 3.3 nM. In the assay with MKN45 cells, the “MKN45 Cell Prolif. 120 hr (Ymin-Obs)” value is 7.412.

In the case of `CO[C@H]1C[C@H](c2ccc3cc(CN4CC[C@H](Oc5ccc6c(c5)CN(C5CCC(=O)NC5=O)C6=O)C4)ccc3n2)C1` (stereo partly drawn) [drawing 579, 3-(1-oxo-5-{[(3S)-1-({2-[(1r,3r)-3-methoxycyclobutyl]quinolin-6-yl}methyl)pyrrolidin-3-yl]oxy}-2,3-dihydro-1H-isoindol-2-yl)piperidine-2,6-dione], the “293T-LentiX WEE1-ePL Degradation 4 hr (Ymin)” value on WEE1 (setting [2]) came out at 21.76. For the same molecule, the DC50 on WEE1 is 12.8 nM. In addition, in the assay on MKN45 cells (growth inhibition), the EC50 was 4.89 nM. In addition, the “MKN45 Cell Prolif. 120 hr (Ymin-Obs)” value in the assay on MKN45 cells stood at 8.615.

On to `CO[C@H]1C[C@@H](c2ccc3cc(CN4CC[C@H](Oc5ccc6c(c5)CN(C5CCC(=O)NC5=O)C6=O)C4)ccc3n2)C1` (stereo partly drawn) [drawing 581, 3-(1-oxo-5-{[(3S)-1-({2-[(1s,3s)-3-methoxycyclobutyl]quinolin-6-yl}methyl)pyrrolidin-3-yl]oxy}-2,3-dihydro-1H-isoindol-2-yl)piperidine-2,6-dione], for which the “293T-LentiX WEE1-ePL Degradation 4 hr (Ymin)” value on WEE1 (setting [2]) came out at 23.8. For the same molecule, the DC50 at WEE1 worked out at 5.35 nM. Besides, the EC50 with MKN45 cells (growth inhibition) came out at 2.41 nM. Further, the “MKN45 Cell Prolif. 120 hr (Ymin-Obs)” value in the assay with MKN45 cells was 7.75.
